These results are taken from ChEMBL document CHEMBL3232874, “The applications of binuclear metallohydrolases in medicine: recent advances in the design and development of novel drug leads for purple acid phosphatases, metallo-β-lactamases and arginases” (Eur J Med Chem, 2014).

By Ki is commonly meant the equilibrium dissociation constant of an inhibitor or competing ligand from its target. Broadly, the IC50 is the point on the concentration scale where inhibition reaches its midpoint.

Square brackets hold non-standard residues; d marks the D form. Peptide text beside a SMILES is read from it. * marks the point of attachment. F2Pmp = N[C@@H](Cc1ccc(C(F)(F)P(=O)(O)O)cc1)C(=O)O; Phe(4-COOH) = N[C@@H](Cc1ccc(C(=O)O)cc1)C(=O)O; Fmoc = O=C(OCC1c2ccccc2-c2ccccc21)*

Assay [1] in a line: Inhibition of metallo-beta-lactamase IMP-1 (unknown origin).
Assay [2] in a line: Inhibition of Plasmodium berghei arginase.
Assay [3] can be described thus: Inhibition of human arginase.
Assay [4] in a line: Inhibition of metallo-beta-lactamase VIM2 (unknown origin).
Assay [5] is described as follows: Inhibition of metallo-beta-lactamase CphA (unknown origin).
Assay [6] is described as follows: Inhibition of metallo-beta-lactamase L1 (unknown origin).
Assay [7] in a line: Inhibition of metallo-beta-lactamase BcII (unknown origin).
Assay [8] addresses T1, Fe(3+)-Zn(2+) purple acid phosphatase (Phaseolus vulgaris, UniProt P80366).
T1 sequence (P80366 whole entry): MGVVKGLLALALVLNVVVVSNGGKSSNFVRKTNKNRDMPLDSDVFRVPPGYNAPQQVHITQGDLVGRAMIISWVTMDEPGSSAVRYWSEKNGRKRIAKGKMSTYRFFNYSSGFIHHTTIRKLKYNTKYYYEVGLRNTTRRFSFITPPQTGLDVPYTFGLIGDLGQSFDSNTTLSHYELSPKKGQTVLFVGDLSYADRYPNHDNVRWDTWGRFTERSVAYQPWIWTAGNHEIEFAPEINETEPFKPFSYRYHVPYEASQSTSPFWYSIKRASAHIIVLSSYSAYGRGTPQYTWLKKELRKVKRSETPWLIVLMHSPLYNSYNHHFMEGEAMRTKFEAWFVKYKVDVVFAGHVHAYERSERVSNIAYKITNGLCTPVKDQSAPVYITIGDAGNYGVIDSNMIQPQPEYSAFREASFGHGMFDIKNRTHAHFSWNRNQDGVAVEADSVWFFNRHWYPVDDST
In words: Inhibition of red kidney beans purple acid phosphatase.

The nature of assay [9]: Inhibition of metallo-beta-lactamase IMP-1 (unknown origin) using nitrocefin as substrate incubated for 15 mins prior to substrate addition.
Assay [10] in a line: Inhibition of human purple acid phosphatase.
A short description of assay [11]: Inhibition of Bacillus cereus metallo-beta-lactamase BcII.
Assay [12] can be described thus: Inhibition of pig purple acid phosphatase at pH 3.3. Also on record: species or system Sus scrofa.
Assay [13] is described as follows: Inhibition of pig purple acid phosphatase at pH 4.9. Also on record: species or system Sus scrofa.
Assay [14] can be described thus: Competitive inhibition of Bacillus cereus 569/H metallo-beta-lactamase BcII by Eadie-Hofstee plot analysis.
Assay [15] can be described thus: Inhibition of Bacillus cereus 5/B/6 metallo-beta-lactamase […] incubated for 1 min prior to substrate addition by spectrophotometry.
Another assay addresses Beta-lactamase L1 (Stenotrophomonas maltophilia, UniProt P52700). As to the kind of experiment: Inhibition of Stenotrophomonas maltophilia metallo-beta-lactamase L1 after 5 mins.
In another assay the target is T2, Arginase-1 (Rattus norvegicus, UniProt P07824).
T2 sequence (P07824 whole entry): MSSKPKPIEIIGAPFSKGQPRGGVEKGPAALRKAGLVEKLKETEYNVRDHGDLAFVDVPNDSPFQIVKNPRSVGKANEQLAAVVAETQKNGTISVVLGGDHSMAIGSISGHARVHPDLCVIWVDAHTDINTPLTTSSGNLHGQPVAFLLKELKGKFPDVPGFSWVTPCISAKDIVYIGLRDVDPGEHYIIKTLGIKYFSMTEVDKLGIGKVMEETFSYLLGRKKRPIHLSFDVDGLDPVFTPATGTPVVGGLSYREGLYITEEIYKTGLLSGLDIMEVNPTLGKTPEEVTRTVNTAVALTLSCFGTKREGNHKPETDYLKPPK
In words: Inhibition of rat liver arginase.

A short description of assay [16]: Inhibition of mouse macrophage arginase.
Assay [17] is described as follows: Inhibition of arginase (unknown origin). Also on record: species or system Homo sapiens.
A short description of assay [18]: Inhibition of human recombinant purple acid phosphatase at pH 4.9.
The nature of assay [19]: Inhibition of human recombinant purple acid phosphatase at pH 3.3.
The target of assay [20] is Metallo-beta-lactamase type 2 (Bacteroides fragilis, UniProt P25910). As to the kind of experiment: Competitive inhibition of Bacteroides fragilis metallo-beta-lactamase CcrA.
Chain of Metallo-beta-lactamase type 2 (P25910 whole entry): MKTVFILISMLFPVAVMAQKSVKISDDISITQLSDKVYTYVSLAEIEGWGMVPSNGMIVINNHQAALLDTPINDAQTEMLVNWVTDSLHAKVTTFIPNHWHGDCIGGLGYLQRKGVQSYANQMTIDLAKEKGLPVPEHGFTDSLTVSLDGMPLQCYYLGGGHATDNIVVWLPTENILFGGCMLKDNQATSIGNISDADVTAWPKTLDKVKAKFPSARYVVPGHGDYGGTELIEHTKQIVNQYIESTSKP
Assay [21] can be described thus: Inhibition of metallo-beta-lactamase CcrA (unknown origin).

Chain of Beta-lactamase L1 (P52700 whole entry): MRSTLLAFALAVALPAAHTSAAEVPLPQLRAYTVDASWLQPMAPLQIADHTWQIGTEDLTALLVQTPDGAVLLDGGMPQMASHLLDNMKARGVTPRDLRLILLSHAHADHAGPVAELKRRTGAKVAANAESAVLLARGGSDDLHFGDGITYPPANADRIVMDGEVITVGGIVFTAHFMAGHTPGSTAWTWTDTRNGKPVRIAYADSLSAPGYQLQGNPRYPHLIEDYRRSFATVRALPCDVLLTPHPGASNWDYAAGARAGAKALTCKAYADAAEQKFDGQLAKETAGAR

With `O=C(O)CCS`, the INH in [1] was 1.2 µM.

Consider `N[C@@H](CCCC[N+](=O)[O-])C(=O)O`, for which the figures for the Ki in assay [2] and in [3] were 11 µM and 60 µM, respectively.

Regarding `O=C(COc1ccccc1)NC(Cc1ccccc1)C(O)C(F)(F)F` (stereo unspecified), the inhibition constant Ki in assay [4], in assay [5], in [6] and in assay [7] was 1.5 µM in each case.

The compound `O=P(O)(O)CS` came in with an IC50 in assay [8] of 80 µM.

Turning to `O=C(COc1ccccc1)NC(Cc1ccccc1)C(=O)C(F)(F)F` (stereo unspecified), the Ki in [4], in [5], in assay [6] and in assay [7] was 1.5 µM throughout.

`O=C(O)[C@@H](Cc1ccc2c(c1)OCO2)[C@H](Cc1ccc2c(c1)OCO2)C(=O)O`: the concentration for half-maximal inhibition (IC50) in assay [9] amounted to 0.009 µM.

With `O=C(O)CCP(=O)(O)O`, the affinity in [8] corresponds to a Ki of 160 µM.

For `O=P(O)(O)C(Cc1ccc(-c2ccccc2)cc1)c1cccc2ccccc12` (stereo unspecified), the half-maximal inhibitory concentration (IC50) in [10] (read-out: IC50) is 6.3 µM.

`O=P(O)(O)CCCS` displayed a half-maximal inhibitory concentration (IC50) in assay [8] of 160 µM.

On to `O=C(c1ccccc1)C(C(=O)c1ccccc1)(c1cccc2ccccc12)P(=O)(O)O`, for which the IC50 in [10] (read-out: IC50) came out at 1.4 µM.

With `O=C(O)C(S)c1ccc(F)cc1` (stereo unspecified), the inhibitory constant (Ki) in assay [11] was found to be 0.09 µM.

On to `O=C(O)CS`, for which the INH in [1] was determined as 0.23 µM.

Take `OCCCS`: the INH in assay [1] was determined as 2.5 µM.

Turning to `C[C@H](NC(=O)[C@H](Cc1ccc(OCC(=O)O)c(C(=O)O)c1)NC(=O)[C@H](CCC(=O)O)NC(=O)OCC1c2ccccc2-c2ccccc21)C(N)=O`, the figures for the Ki in assay [12] and in assay [13] were 112 µM and 146 µM, respectively.

For the compound `CC(NC(=O)COc1ccccc1)C(O)C(F)(F)F` (stereo unspecified), the inhibition constant (Ki) in [4], in assay [5], in [6] and in assay [7] was 1.5 µM throughout.

For the compound `O=C(O)CP(=O)(O)O` [FOSFONET], in assay [8], the Ki amounted to 590 µM.

The compound `CC(=O)N[C@H]1[C@H](O[C@H]2C[C@@H](C(=O)NCCS(=O)(=O)O)N[C@@H]2CO)O[C@H](CO)[C@@H](OS(=O)(=O)O)[C@@H]1O` [BULGECIN A] yielded an IC50 in [14] of 230 µM.

Turning to `O=P(O)(O)C(O)c1cccc2ccccc12` (stereo unspecified), the IC50 result in [10] is listed as “Not Active”.

As for `O=S(=O)(N/N=C/c1c2ccccc2cc2ccccc12)c1ccc2ccccc2c1`, the affinity in assay [15], expressed as Ki, was 0.02 µM. For the same compound, in assay [1], the IC50 stood at 1.6 µM.

In the case of `C[C@H](NC(=O)[C@H](Cc1ccc(C(F)(C(=O)O)C(=O)O)cc1)NC(=O)[C@H](CCC(=O)O)NC(=O)OCC1c2ccccc2-c2ccccc21)C(N)=O`, the figures for the Ki in [12] and in assay [13] were 8 µM and 49 µM, respectively.

On to `O[C@H](CS)[C@@H](O)CS`, for which the INH in [1] turned out to be 2.2 µM.

For `C[C@H](NC(=O)[C@H](Cc1ccc(C(=O)O)cc1)NC(=O)[C@H](CCC(=O)O)NC(=O)OCC1c2ccccc2-c2ccccc21)C(N)=O` (Fmoc-Glu-[Phe(4-COOH)]-Ala-NH2), the results for the Ki in [12] and in assay [13] were 100 µM and 161 µM, respectively.

In the case of `COC(=O)c1cc(SCC(NC(C)=O)C(=O)OC)cc2nc3c(C(=O)O)cccc3nc12` (stereo unspecified), at Beta-lactamase L1, the midpoint of inhibition, the IC50, lay at 1 µM.

Turning to `O=C(O)c1cccc(C(=O)O)n1` [DIPICOLINIC ACID], the IC50 in [6] stood at 7.8 µM; in [7], 21.8 µM.

Consider `SCc1ccccc1` [BENZENEMETHANETHIOL], for which, in assay [11], inhibition was half-maximal at 9.2 µM (IC50).

Compound `O=P(O)(O)c1ccccc1S` yielded a half-inhibitory concentration (IC50) in [8] of 350 µM.

In assay [1], `OCCS` showed an INH of 12 µM.

On to `N=C(NO)NCC[C@H](N)C(=O)O` [NOR-NOHA], for which the IC50 at Arginase-1 was found to be 2 µM; in [16], 50 µM.

As to `C[C@H](NC(=O)[C@H](Cc1ccc(CC(=O)O)c(C(=O)O)c1)NC(=O)[C@H](CCC(=O)O)NC(=O)OCC1c2ccccc2-c2ccccc21)C(N)=O`, the Ki in assay [12] worked out at 201 µM; in assay [13], 279 µM.

Consider `CC(=O)Oc1cc(C[C@H](NC(=O)[C@H](CCC(=O)O)NC(=O)OCC2c3ccccc3-c3ccccc32)C(=O)N[C@@H](C)C(N)=O)ccc1OCC(=O)O`, for which the Ki stood at 413 µM in assay [12] and 777 µM in assay [13].

The compound `COC(=O)c1c(O)ccc2nc3c(C(=O)O)cccc3nc12` came in with an IC50 against Beta-lactamase L1 of 1 µM.

Compound `NNC(N)=S` [THIOSEMICARBAZIDE] gave a Ki in [17] of 100 µM.

Turning to `C[C@H](NC(=O)[C@H](Cc1ccc(C(F)(F)P(=O)(O)O)cc1)NC(=O)[C@H](CCC(=O)O)NC(=O)OCC1c2ccccc2-c2ccccc21)C(=O)O` (Fmoc-Glu-[F2Pmp]-Ala-OH), the Ki in assay [18] was determined as 63 µM; in assay [19], 67 µM.

As for `CCOC(=O)CS`, the INH in [1] was determined as 1.4 µM.

Consider `CC(NC(=O)COc1ccccc1)C(=O)C(F)(F)F` (stereo unspecified), for which the Ki in assay [4], in assay [5], in assay [6] and in [7] was 1.5 µM each time.

Consider `C[C@H](NC(=O)[C@H](Cc1ccc(OC(C(=O)O)C(=O)O)cc1)NC(=O)[C@H](CCC(=O)O)NC(=O)OCC1c2ccccc2-c2ccccc21)C(=O)O`, for which the Ki in assay [18] was found to be 26 µM; in assay [19] it was 14 µM.

Consider `O=C(O)c1ccccc1S` [THIOSALICYLIC ACID], for which the Ki in [11] was found to be 9.2 µM.

For `O=P(O)(O)CP(=O)(O)O` [MEDRONIC ACID], in assay [8], the Ki worked out at 140 µM.

Turning to `CCOC(=O)CCS`, the INH in assay [1] was found to be 0.25 µM.

Compound `c1ccc(-c2nnn[nH]2)c(-c2ccc(Cn3c4ccccc4c4ccccc43)cc2)c1` had an IC50 in [20] of 0.3 µM.

Take `O=P(O)(O)CCS`: the half-maximal inhibitory concentration (IC50) in assay [8] is 3000 µM.

In the case of `C[C@H](NC(=O)[C@H](Cc1ccc(C(C(=O)O)C(=O)O)cc1)NC(=O)[C@H](CCC(=O)O)NC(=O)OCC1c2ccccc2-c2ccccc21)C(N)=O`, the Ki in [12] is 6 µM; in assay [13] it was 38 µM.

As to `O[C@H](CS)[C@H](O)CS`, the INH in assay [1] worked out at 0.55 µM.

`COC1OC(C)=Cc2oc3cc(O)c(O)c(C(=O)O)c3c(=O)c21` (stereo unspecified): the Ki in [1] was determined as 17 µM; in [21], 3.4 µM; in assay [7], 79 µM.

Take `C[C@H](NC(=O)[C@H](Cc1ccc(OC(F)(C(=O)O)C(=O)O)cc1)NC(=O)[C@H](CCC(=O)O)NC(=O)OCC1c2ccccc2-c2ccccc21)C(=O)O`: the results for the Ki in assay [18] and in [19] were 74 µM and 36 µM, respectively.

In assay [1], `CC(S)C(=O)O` (stereo unspecified) showed an INH of 0.19 µM.

Take `COc1ccc(C(S)C(=O)O)cc1` (stereo unspecified): the affinity in [11], expressed as Ki, was 0.09 µM.

`O=P(O)(O)Cc1cccc2ccccc12`: the IC50 in [10] (read-out: IC50) turned out to be 30 µM.

For the compound `O=C(O)C(S)c1ccccc1` (stereo unspecified), the Ki in [11] is 0.09 µM.
